The text below walks through data of PubChem BioAssay (NCI).

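Five compound concentrations were applied to cells in 96-well plates for 48 hours; endpoints were derived by simple linear interpolation of the resulting dose-response curve. GI50 is the concentration that inhibits growth by half. Definition used: TGI = concentration required for complete inhibition of growth.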

Among the test systems are RPMI-8226 leukemia; HS 578T breast; BT-549 breast; OVCAR-5 ovarian; HL-60(TB) leukemia; HOP-62 NSCLC; MDA-MB-435; SK-MEL-28 melanoma; EKVX NSCLC; A549 NSCLC.
What all share (assay): NCI-60 cell line screen, 48 h

Take `CC1(C)CCC[C@]23C(=O)O[C@](O)(C(=O)C4=C[C@@](C)(/C=C/CCCc5ccc6ccc7cccc8ccc5c6c78)CC[C@@]42O)[C@@H]13`: the GI50 is 196 nM in the assay with RPMI-8226 leukemia; 251 nM with HS 578T breast; 141 nM in the assay on BT-549 breast; 187 nM with OVCAR-5 ovarian; 248 nM in the assay on HL-60(TB) leukemia; 215 nM in the assay on HOP-62 NSCLC. The GI50 in the assay with MDA-MB-435 was 173 nM; in the assay on SK-MEL-28 melanoma, 144 nM; in the assay on EKVX NSCLC, 216 nM; in the assay on A549 NSCLC, 202 nM. The TGI in the assay on RPMI-8226 leukemia is 0.571 µM; in the assay on HS 578T breast, 0.812 µM; with BT-549 breast it was 0.282 µM; in the assay on OVCAR-5 ovarian it was 0.376 µM; with HL-60(TB) leukemia it was 0.649 µM; with HOP-62 NSCLC, 0.563 µM. Further, the TGI in the assay on MDA-MB-435 worked out at 0.323 µM; in the assay with SK-MEL-28 melanoma it was 0.317 µM; in the assay on EKVX NSCLC it was 0.485 µM; with A549 NSCLC it was 0.678 µM.

`CC(CN=C(CC(=O)c1ccc(Br)cc1)c1ccccc1)N=C(CC(=O)c1ccc(Br)cc1)c1ccccc1` (centres undefined): the GI50 in the assay with RPMI-8226 leukemia is 4370 nM; in the assay on HS 578T breast, more than 100000 nM; in the assay with BT-549 breast it was 42100 nM; in the assay on OVCAR-5 ovarian it was more than 100000 nM; with HL-60(TB) leukemia it was 17200 nM; with HOP-62 NSCLC it was more than 100000 nM. In addition, the GI50 was 41800 nM with MDA-MB-435, more than 100000 nM with SK-MEL-28 melanoma, 21000 nM in the assay on EKVX NSCLC and 7600 nM in the assay with A549 NSCLC. The TGI in the assay with RPMI-8226 leukemia is 38.6 µM; with HS 578T breast, more than 100 µM; in the assay on BT-549 breast, more than 100 µM; in the assay on OVCAR-5 ovarian, more than 100 µM; with HL-60(TB) leukemia, 68 µM; with HOP-62 NSCLC, more than 100 µM. The TGI in the assay on MDA-MB-435, with SK-MEL-28 melanoma, in the assay with EKVX NSCLC and with A549 NSCLC was more than 100 µM throughout.

Regarding `COc1ccc(-c2ccc(/C=C/C(=O)NO)cc2)cc1`, the GI50 in the assay on RPMI-8226 leukemia is 697 nM; in the assay with HS 578T breast it was 3150 nM; with BT-549 breast it was 1530 nM; in the assay on OVCAR-5 ovarian, 1740 nM; with HL-60(TB) leukemia, 269 nM; in the assay on HOP-62 NSCLC it was 1310 nM. For the same compound, the GI50 with MDA-MB-435 was 2120 nM; with SK-MEL-28 melanoma, 2450 nM; with EKVX NSCLC, 2230 nM; in the assay with A549 NSCLC, 317 nM. Besides, the TGI is more than 100 µM with RPMI-8226 leukemia; 56.3 µM in the assay on HS 578T breast; 25.9 µM in the assay with BT-549 breast; 17.7 µM in the assay with OVCAR-5 ovarian; 3.11 µM in the assay on HOP-62 NSCLC; more than 100 µM in the assay on MDA-MB-435. Also, the TGI in the assay on SK-MEL-28 melanoma worked out at 13 µM; in the assay with EKVX NSCLC, 12.9 µM; with A549 NSCLC it was 6.14 µM.

Regarding `Cc1ccc2nc3c(C)c(Cl)c(=O)cc-3sc2c1`, the TGI with RPMI-8226 leukemia was more than 52.3 µM; in the assay on HS 578T breast, 71.7 µM; with BT-549 breast, more than 100 µM; in the assay on OVCAR-5 ovarian it was more than 95.8 µM; in the assay with HL-60(TB) leukemia, 26.7 µM; in the assay with HOP-62 NSCLC, 69.4 µM. The TGI in the assay on MDA-MB-435 was 39.7 µM; in the assay with SK-MEL-28 melanoma, 99.2 µM; in the assay with EKVX NSCLC it was more than 95.6 µM; in the assay on A549 NSCLC, 98.2 µM.

As for `O=C1c2ccccc2C(=O)c2c(NCCCNCCO)ccc(NCCCNCCO)c21`, the TGI was 53.1 µM with RPMI-8226 leukemia; 34.4 µM in the assay with HS 578T breast; 30.7 µM in the assay on BT-549 breast; 44.7 µM with OVCAR-5 ovarian; 33.8 µM in the assay on HL-60(TB) leukemia; 23.8 µM in the assay with HOP-62 NSCLC. The TGI worked out at 25.7 µM with MDA-MB-435, 16.8 µM with SK-MEL-28 melanoma, 26.3 µM in the assay with EKVX NSCLC and 47.3 µM in the assay with A549 NSCLC.

With `Cl.[Pt].[c-]1ccccc1-c1ccccn1.c1ccc(P(c2ccccc2)C([PH+](c2ccccc2)c2ccccc2)[PH+](c2ccccc2)c2ccccc2)cc1`, the GI50 with RPMI-8226 leukemia is 525 nM; with HS 578T breast, 2220 nM; in the assay on BT-549 breast, 2090 nM; in the assay with OVCAR-5 ovarian, 2900 nM; in the assay on HL-60(TB) leukemia, 1100 nM; in the assay on HOP-62 NSCLC, 2390 nM. In addition, the GI50 in the assay on MDA-MB-435 was 2450 nM; in the assay on SK-MEL-28 melanoma, 2640 nM; with EKVX NSCLC, 2300 nM; in the assay with A549 NSCLC, 1320 nM. Besides, the TGI came out at 3.66 µM in the assay on RPMI-8226 leukemia; 20.8 µM in the assay with HS 578T breast; 6.82 µM in the assay with BT-549 breast; 23.9 µM with OVCAR-5 ovarian; 5.32 µM in the assay with HL-60(TB) leukemia; 9 µM in the assay on HOP-62 NSCLC. Moreover, the TGI was 6.65 µM in the assay with MDA-MB-435, 9.7 µM with SK-MEL-28 melanoma, 62.2 µM in the assay with EKVX NSCLC and 15.1 µM in the assay on A549 NSCLC.
